{"source": "patent US11485742B2", "about": "“2-azaspiro[3.4]octane derivatives as M4 agonists” (NOVARTIS AG, priority 2019, dated 2022)", "origin": "cited, not measured here", "system": "hyperactivity in mice induced by the stimulant d-amphetamine", "conditions": "general statement on clinically efficacious muscarinic anti-psychotics; cited from earlier work", "data": [{"smiles": "CCCCCCOc1nsnc1C1=CCCN(C)C1", "note": "[xanomeline]", "values": [{"measurement": "activity in the amphetamine induced hyperlocomotion assay", "value": "active"}]}]}
